Experimental data reported in patent publication US20110065919A1, “5-Substituted Indol-3-Carboxylic Acid Derivatives Exhibiting Antiviral Activity a Method for the Production and Use Thereof” (priority 2007, published 2011).
In brackets after ≈: the same amount, converted by molar mass. Read-outs that look alike come from different tables or passages of the source.

Legend:
[1] = tested on: MDCK tissue culture cells; assay: Cytotoxic action, maximal tolerated concentration in MDCK tissue culture cells
[2] = tested on: influenza A/New Caledonia/20/99 (H1N1) virus reference strain; assay: microbe, parasite or virus in culture; format: cell-based; conditions: for Activity at 10 μg/mL / specific activity in relation to influenza A virus reference strain (H1N1), in words / MIC50: MDCK cells; for MIC50: concentration inhibiting viral reproduction by 50%; for Chemotherapeutic Index: ratio of the MTC to the MIC50
[3] = tested on: influenza A/Aichi/2/69 (H3N3) virus; assay: Murine influenza pneumonia model; format: in vivo, mice; conditions: for Mortality reduction: versus infected control; for Survived: number of mice surviving, n=10, 60 mg/kg/day
Experimental: (§1) 2. Determination of the efficacy of the compounds in the murine influenza pneumonia model.
(§2) The mice were infected intranasally under light ether anesthesia with the influenza A/Aichi/2/69 ([…]) virus. […] The efficacy of the action of the compounds in the influenza pneumonia model were assessed according to the number of mice surviving after infection with the virus and the increase in mean life span
(§3) The mean life span of the mice was calculated according to the following formula: MSD [mean survival day]=Σ(f(d−1)[…], where f is the number of mice dying on day d; the surviving mice were also included in f, and d in this case was 15; n is the number of mice in the group.

[4] = tested on: influenza A/Aichi/2/69 virus; assay: Murine influenza pneumonia model; format: in vivo, mice; conditions: mean life span, 60 mg/kg/day, survivors counted with d=15
Experimental: as §1, §2, §3

| Compound | MTC of the Compounds [1] [µg/mL] | efficacy at 10 μg/mL compared with arbidol, in words [2] | Activity at 10 μg/mL [2] | specific activity in relation to influenza A virus reference strain (H1N1), in words [2] | MIC50 [2] [µg/mL] | Chemotherapeutic Index [2] | Mortality ([3]; 60 mg/kg/day) [%] | chemotherapeutic action compared with arbidol, in words ([3]; 60 mg/kg/day) | Mortality reduction ([3]; 60 mg/kg/day) [%] | Survived [3] | Life Span [4] [days] | MIC50 ([2]; Influenza A virus, H1N1, read-out: MIC50) [µg/mL] |
| --- | --- | --- | --- | --- | --- | --- | --- | --- | --- | --- | --- | --- |
| COc1cc2c(C(=O)N3CCCC3)c(CSc3ccccc3)n(C)c2cc1Br [B] | 15 | did not differ from it | 100.0 | high specific activity | 2.0 (≈ 4.35 µM) | 7.5 |  |  |  |  |  |  |
| COc1cc2c(C(=O)N3CCCCC3)c(CSc3ccccc3)n(C)c2cc1Br [C] | 25 |  | 52.1 | low activity | 9.2 (≈ 19.4 µM) | 2.7 |  |  |  |  |  |  |
| 1-{6-Bromo-1-methyl-5-methoxy-2-(phenylthio)methyl-1-H-indol-3-yl}-benzylpiperazine | 40 | inferior to arbidol in efficacy | 64.4 | high specific activity | 5.8 | 6.9 | 20 | not inferior to arbidol | 61 | 8 | 13.1 |  |
| CCOC(=O)c1c(CSc2ccccc2)n(C)c2cc(Br)c(O)c(CN(C)C)c12 [Arbidol, 1-methyl-2-phenylthiomethyl-3-carbethoxy-4-dimethylaminomethyl-5-hydroxy-6-bromindol, reference compound] | 40 |  | 100.0 |  |  | 6.7 | 20 |  | 61 | 8 | 12.2 | 6 (≈ 12.6 µM) |
